This note sets out measurements from publication PMC10855164, “Ligand-Based Design of Selective Peptidomimetic uPA and TMPRSS2 Inhibitors with Arg Bioisosteres” (International Journal of Molecular Sciences, 2024).

This experiment addresses T1, matriptase (Homo sapiens, UniProt Q9Y5Y6).
T1 construct: catalytic domain of matriptase (uniport: Q9Y5Y6 aa 596–855); hexa-histidine (N); made in house; host or cells: Escherichia coli BL21 Gold (DE3)
T1 sequence (Q9Y5Y6 596-855): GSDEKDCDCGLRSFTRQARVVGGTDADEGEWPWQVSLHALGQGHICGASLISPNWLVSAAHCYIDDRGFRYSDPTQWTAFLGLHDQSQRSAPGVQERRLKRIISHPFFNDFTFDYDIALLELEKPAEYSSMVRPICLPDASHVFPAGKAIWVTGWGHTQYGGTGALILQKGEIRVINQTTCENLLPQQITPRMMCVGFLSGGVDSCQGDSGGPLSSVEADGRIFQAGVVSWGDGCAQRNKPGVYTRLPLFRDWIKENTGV
In words: fluorometric enzyme inhibition assay, matriptase (Boc-Leu-Arg-Arg-AMC). Type of experiment: biochemical. Particulars: for Ki: from IC50 by Cheng-Prusoff, n.a. = not active, <80% inhibition at 20 µM. Here is the method:
The inhibitory activity of the synthesized compounds towards the respective main- and off-target proteases was measured via fluorometric and colorimetric assays. Thus, fluorogenic AMC- or colorimetric pNA-based substrates with a peptide sequence suitable for the tested protease were utilized (see Supplementary Figure S2). At first, the compounds were screened against […] proteases (uPA, TMPRSS2, matriptase, tPA, thrombin, factor Xa) at 20 µM, and a cut-off value of 80% inhibition at this concentration was set, for the differentiation between nonactive (n.a.) and active inhibitors. Due to the reversible inhibition mechanism of the ketobenzothiazole derivates, the IC50 values were determined with Graphpad Prism 9, and afterwards converted to the corresponding Ki values for an adequate comparison between the inhibitory activities of the compounds toward all tested proteases. The Ki values were calculated using the Cheng–Prusoff equation [43].
Fluorometric inhibition assays
The inhibitory activities of the compounds against the proteases were determined by enzyme inhibition assays with fluorogenic or colorimetry-based substrates. The fluorescence, caused by cleaved AMC from the fluorogenic substrates (uPA, matriptase, TMPRSS2, thrombin), was measured in white flat-bottom 96-well plates from Greiner Bio-One using a Tecan Infinite F200 Pro plate reader. The absorption, caused by cleaved pNA from colorimetric substrates (factor Xa and tPA), was measured in transparent flat-bottom 96-well plates from Greiner Bio-One using a Tecan Spark 10M plate reader. All measurements with the main-target proteases (uPA and TMRPSS2) were performed as triplicates and with the off-target proteases (matriptase, factor Xa, tPA, thrombin) as duplicates. The substrates and the compounds were prepared as stock solutions in DMSO. Each well contained a total volume of 200 µL, consisting of 185 µL buffer, 5 µL inhibitor in DMSO or pure DMSO as negative control, 5 µL substrate in DMSO and 5 µL enzyme solution in buffer. Dilution series were prepared for the determination of the inhibition constants. The fluorescence signal and absorbance were measured every 30 s for 10 min at 25 or 37 °C with the corresponding excitation/emission (λex = 380 nm / λem = 460 nm) and absorbance (λabs = 405 nm) wavelengths, depending on the targeted protease. IC50 values for the reversible inhibitors were calculated with Graphpad Prism 9 by fitting the remaining enzymatic activity to the four parameter IC50 equation with Y [%] as the residual enzyme activity , Ymax as the maximum value of the dose response curve at inhibitor concentrations [I] = 0 µM, Ymin as the minimum value at high inhibitor concentrations and s as the hill coefficient.[1] The fluorescence progress curves and sigmoidal dose-response curve for inhibition of uPa by compound 38 is shown exemplary in Figure S2. […]
Due to the dependence of the IC50 value on the substrate affinity and concentration, the Ki values were calculated with the Cheng-Prusoff equation, using the final substrate concentration [S] and the Michaelis-Menten constant KM, (2) for appropriate comparison of the inhibitory activities to the other enzymes and inhibitors.[1]
KM values were determined by fitting to the Michaelis-Menten equation using Graphpad Prism 9 with v [ΔF/min] as the substrate hydrolysis rate, vmax as the maximum slope of the dose-response curve, and the substrate [S] concentration.[1] The different substrates were serially diluted in DMSO. The measurement was done in analogy to the determination of the inhibitory activity, but with 5 µL pure DMSO instead of inhibitor solution. […]
The following buffers and substrates were used for the respective assays: uPA (50 mM Tris HCl pH = 7.9, 150 mM […]
TMPRSS2 (25 mM Tris HCl pH = 8.0, 150 mM NaCl, 5 mM CaCl2, 0.001% TX-100, 100 µM Boc-Gln-Ala-Arg-AMC (KM: 68.63 ± 6.64 µM), 25 °C, 3 nM TMPRSS2)[3]; matriptase (50 mM Tris HCl pH = 8.0, 150 mM NaCl, 5 mM CaCl2, […]

Compound `CC(=O)NCC(=O)NC(C(=O)NC(C)C(=O)NC(CC1CCC(NC(=N)N)CC1)C(=O)c1nc2ccccc2s1)C(C)O` (stereo not shown) [Compound 38] had a Ki of 626 ± 74 nM. The “Selectivity index [SI] Matriptase” value (quotient Ki matriptase / Ki uPA) is recorded as 16.
Compound `CC(=O)N[C@@H](Cc1ccccc1)C(=O)N[C@@H](Cc1ccc(NC(=N)N)cc1)C(=O)c1nc2ccccc2s1` [Compound 33] came in with an inhibition constant Ki of 1440 ± 90 nM. Besides, under “quotient Ki matriptase / Ki TMPRSS2”, the “Selectivity index [SI] Matriptase” value was 289.

As a reminder, the Ki is a measure of affinity in units of concentration, obtained from inhibition or displacement.
